Test results taken from patent publication US20210186972A1, “FORMULATIONS AND METHODS FOR THE PREVENTION AND TREATMENT OF TUMOR METASTASIS AND TUMORIGENESIS” (THE UNITED STATES OF AMERICA, AS REPRESENTED BY THE …, priority 2018, published 2021).

Tests used:
eEF1A = experiment: Cellular thermal shift assay (CETSA); type: binding; details: PC3M cell lysate
Excerpt: DMSO is the top panel and metarrestin is the bottom panel.

KPC mice = experiment: Veterinary histopathology and clinical chemistry, KPC mice; type: in vivo
[1] = tested on: PC3M cells overexpressing eEF1A2; experiment: PNC disassembly in eEF1A2-overexpressing cells; type: cell-based; details: vs control vector
Excerpt: FIG. 39 is a graph showing that overexpression of eEF1A2 in PC3M cells increased the IC50 of metarrestin for PNC disassembly. PNC prevalence (%) is on the y-axis and the log [M] metarrestin is on the […]. eEF1A2 is shown by circles and the control vector is shown by squares.
eEF1As are multi-functional proteins, implicated in translation elongation, actin bundling, nuclear transport, and tRNA export. To evaluate whether eEF1A mediates the effect of metarrestin on cancer cells, eEF1A was either overexpressed or reduced through siRNA silencing. […] Thus, eEF1A2 enhances PNC structures, but is alone not sufficient to induce significant formation of PNCs in PNC-negative cells. To evaluate the functional link between the phenotype of metarrestin-induced PNC disassembly and eEF1A2, PNC disassembly in wild type and eEF1A2-overexpressing cancer cells was analyzed. Cells with and without over expression of eEF1A2-HA (48 hours after transfection with an efficiency at around 70%, FIGS. 61 and 64) were treated with metarrestin at 10 concentrations, and PNC prevalence was evaluated at 63× magnification. […] To evaluate whether eEF1A2 indeed regulates the metastatic phenotype, PANC1 cells with (PANC1 eEF1A2 O.E.) or without (PANC1 control) overexpression of eEF1A2 were orthotopically injected into NSG mice. Six weeks after implantation, organs were subjected to histopathological evaluation.

RPA194 and UBF = experiment: Western blot of RPA194 and UBF; type: cell-based; details: 1 μM, 24 hours, PANC1, PC3M, and HeLa
Experimental: Western blots were performed according to the manufacturer's protocols (Li-COR). Transfer membrane was from Millipore (cat. no. IPFL00010). The primary antibodies used were phospho-γ H2AX (Upstate 07-164, rabbit, 1:1000); p53 (Santa Cruz Biotechnology sc-6243 rabbit 1:500); UBF (F-9) (Santa Cruz Biotechnology, mouse, 1:500); RPA194 (Santa Cruz Biotechnology, sc-48385, mouse, 1:500); p53BP1 (Novus, NB100-304, rabbit 1:10,000); EF1a (Millipore 05-235, mouse, 1:1000), HA-Tag (C29F4, Cell Signaling, rabbit 1:1000) and actin (Sigma A5060, rabbit, 1:3000, A4700, mouse, 1:1000) as a loading control. LI-COR IRDye secondary antibodies (1:10,000), goat anti-mouse-680RD (926-68070), goat anti-mouse-800CW (926-32210), goat-anti-rabbit-680RD (926-68071), goat-anti-rabbit-800CW (926-32211) were used for visualization. Protein bands were detected using LI-COR Odyssey Image Studio (LI-COR Biosciences).
Psoralen crosslinks active accessible DNA under UV light without displacing nucleosomes or transcription factors, or changing chromatin states. Psoralen-crosslinked DNA moves slower on agarose gel and can be distinguished from the non-crosslinked DNA by Southern blots. […] To examine the interactions between Pol I transcription factors and rDNA, quantitative ChIP experiments were carried out using primer sets across promoter and coding regions of rDNA (FIG. 29-30E).

[2] = female, KPC, mouse, in vivo, 3 months
[3] = male, KPC, mouse, in vivo, 3 months

N=c1c2c(-c3ccccc3)c(-c3ccccc3)n(Cc3ccccc3)c2ncn1[C@H]1CC[C@H](O)CC1 [metarrestin]
Aggregation temperature of eEF1A (eEF1A): increase in the aggregation temperature of eEF1A | Ileum segmented filamentous bacteria (KPC mice; KPC-Metarrestin Female F01): 3/3 | Ileum segmented filamentous bacteria (KPC mice; KPC-Metarrestin Male M01): 4/4 | Adrenal hyperplasia, subcapsular cell (KPC mice; [2]): 2/3 | Duodenum dilatation (KPC mice; [2]): 3/3 | Femur marrow hyperplasia, granulocytic (KPC mice; [2]): 1/3 | Gall Bladder hyperplasia, papillary (KPC mice; [2]): 3/3 | Kidney hydronephrosis (KPC mice; [2]): 1/3 | Kidney mineralization (KPC mice; [2]): 1/3 | Liver deformity (KPC mice; [2]): 1/3 | Liver inflammation, subacute (KPC mice; [2]): 3/3 | Lung lymphocytic infiltrate (KPC mice; [2]): 3/3 | Pancreas duct, dilation (KPC mice; [2]): 3/3 | Pancreas neoplasm, graded (KPC mice; [2]): 3/3 | Salivary Gland lymphocytic infiltrate (KPC mice; [2]): 2/3 | Spleen extramedullary hematopoiesis, erythrocytic, increased erythropoiesis (KPC mice; [2]): 1/3 | Spleen fibrosis (KPC mice; [2]): 1/3 | Spleen melanin (KPC mice; [2]): 1/3 | Stomach, glandular, hyperplasia, foveolar cells (KPC mice; [2]): 3/3 | Thyroid ectopic thymus (KPC mice; [2]): 1/3 | Vertebra hyperplasia, granulocytic, marrow (KPC mice; [2]): 1/3 | Adrenal lipogenic pigment (KPC mice; [3]): 3/4 | Cecum proliferative typhlitis (KPC mice; [3]): 1/4 | Duodenum dilatation (KPC mice; [3]): 1/4 | Duodenum hyperplasia, crypt (KPC mice; [3]): 1/4 | Femur marrow hyperplasia, granulocytic (KPC mice; [3]): 4/4 | Gall Bladder hyperplasia, papillary (KPC mice; [3]): 4/4 | Heart dilation, atrium (KPC mice; [3]): 1/4 | Heart mineralization (KPC mice; [3]): 1/4 | Kidney mineralization (KPC mice; [3]): 1/4 | Kidney vacuolation. proximal tubule (KPC mice; [3]): 1/4 | LN, mandibular hyperplasia, lymphoid (KPC mice; [3]): 1/4 | LN, mandibular plasmacytosis (KPC mice; [3]): 1/4 | Liver inflammation, subacute (KPC mice; [3]): 2/4 | Liver lymphocytic infiltrate (KPC mice; [3]): 2/4 | Lung lymphocytic infiltrate (KPC mice; [3]): 3/4 | Pancreas duct, dilation (KPC mice; [3]): 4/4 | Pancreas neoplasm, graded (KPC mice; [3]): 4/4 | Skin/Subcutis inflammation, chronic active (KPC mice; [3]): 1/4 | Spleen extramedullary hematopoiesis, erythrocytic, increased erythropoiesis (KPC mice; [3]): 1/4 | Spleen fibrosis (KPC mice; [3]): 2/4 | Stomach, glandular, hyperplasia, foveolar cells (KPC mice; [3]): 2/4 | Stomach, nonglandular, erosion (KPC mice; [3]): 1/4 | Thyroid hyperplasia, papillary (KPC mice; [3]): 1/4 | Vertebra hyperplasia, granulocytic, marrow (KPC mice; [3]): 4/4 | Histopathological or laboratory abnormalities (KPC mice; mouse, in vivo, 10 mg/kg): failed to discern any histopathological or laboratory abnormalities | Histopathological or laboratory abnormalities (KPC mice; mouse, in vivo, po, 25 mg/kg): failed to discern any histopathological or laboratory abnormalities | IC50 for PNC disassembly with increased expression of eEF1A2 [1]: increased the inhibitory concentration 50 (IC50) | Amounts of Pol I large subunit RPA194 and UBF (RPA194 and UBF): did not change significantly
